Where “and” joins values, the source holds several entries; their conditions need not be identical. Equal values may be shown once.
What was measured:
[1] = target: VEGFR-2 (Homo sapiens, UniProt P35968); assay: In vitro VEGFR-2 tyrosine kinase inhibitory assay (Z'-LYTE, SelectScreen); format: biochemical; settings: for inhibition at 0.0001 µM: 0.1 nM compound; for inhibition at 0.0001 µM / inhibition at 0.001 µM / inhibition at 0.01 µM / inhibition at 0.1 µM / inhibition at 1 µM: 10 μM ATP, read-out: % Inhibition mean, KDR (VEGFR2); for inhibition at 0.001 µM: 1 nM compound; for inhibition at 0.01 µM: 10 nM compound; for inhibition at 0.1 µM: 100 nM compound; for inhibition at 1 µM: 1000 nM compound; for IC50: read-out: IC50 in enzyme assays VEGFR-2
Chain of VEGFR-2 (P35968 20-1356): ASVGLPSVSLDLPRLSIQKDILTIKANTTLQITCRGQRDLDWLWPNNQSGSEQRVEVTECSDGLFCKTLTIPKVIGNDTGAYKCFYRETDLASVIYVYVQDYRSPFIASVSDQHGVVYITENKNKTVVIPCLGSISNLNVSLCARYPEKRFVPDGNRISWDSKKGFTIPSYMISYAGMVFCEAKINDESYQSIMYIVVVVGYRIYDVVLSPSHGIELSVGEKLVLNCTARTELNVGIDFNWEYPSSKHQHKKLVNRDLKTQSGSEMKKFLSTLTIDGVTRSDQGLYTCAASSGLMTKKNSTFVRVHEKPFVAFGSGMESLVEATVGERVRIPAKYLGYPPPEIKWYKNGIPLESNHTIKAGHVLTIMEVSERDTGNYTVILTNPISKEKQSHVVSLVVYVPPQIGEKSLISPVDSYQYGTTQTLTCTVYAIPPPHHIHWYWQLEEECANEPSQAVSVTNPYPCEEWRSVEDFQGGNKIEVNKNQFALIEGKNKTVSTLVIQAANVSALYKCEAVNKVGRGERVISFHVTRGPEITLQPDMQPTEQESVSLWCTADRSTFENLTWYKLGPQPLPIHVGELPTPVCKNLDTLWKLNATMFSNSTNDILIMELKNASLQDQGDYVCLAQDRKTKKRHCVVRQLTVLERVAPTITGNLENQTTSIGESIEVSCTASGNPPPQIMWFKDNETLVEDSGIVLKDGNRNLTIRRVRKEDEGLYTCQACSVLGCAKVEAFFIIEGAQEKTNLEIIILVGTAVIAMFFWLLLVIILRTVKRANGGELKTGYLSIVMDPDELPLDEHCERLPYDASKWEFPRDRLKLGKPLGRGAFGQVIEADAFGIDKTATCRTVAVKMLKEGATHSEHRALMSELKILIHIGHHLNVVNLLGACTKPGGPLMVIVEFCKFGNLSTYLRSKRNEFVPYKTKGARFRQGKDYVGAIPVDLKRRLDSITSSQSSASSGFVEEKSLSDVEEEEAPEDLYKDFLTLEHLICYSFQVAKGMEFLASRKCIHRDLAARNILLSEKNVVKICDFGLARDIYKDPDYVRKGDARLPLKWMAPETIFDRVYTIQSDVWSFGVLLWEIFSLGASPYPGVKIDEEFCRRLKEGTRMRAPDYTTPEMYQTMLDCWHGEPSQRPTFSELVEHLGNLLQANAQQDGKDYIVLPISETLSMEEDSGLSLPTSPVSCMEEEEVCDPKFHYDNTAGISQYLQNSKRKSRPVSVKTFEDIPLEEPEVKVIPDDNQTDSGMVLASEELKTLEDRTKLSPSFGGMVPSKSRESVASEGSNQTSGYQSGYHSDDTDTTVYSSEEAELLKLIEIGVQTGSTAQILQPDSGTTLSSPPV
Summary of the method: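 Z'-LYTE fluorescence coupled-enzyme format, read-out based on differential protease cleavage of phosphorylated vs non-phosphorylated peptide. Compounds screened at 10 µM single dose for % inhibition, then selected ones tested at 0.1 nM–10 µM for IC50 by curve fitting.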

[2] = target: EGFR (Homo sapiens, UniProt P00533); assay: In vitro EGFR tyrosine kinase inhibitory assay (Z'-LYTE, SelectScreen); format: biochemical; settings: for inhibition at 0.0001 µM: 0.1 nM compound; for inhibition at 0.0001 µM / inhibition at 0.001 µM / inhibition at 0.01 µM / inhibition at 0.1 µM / inhibition at 1 µM: 10 μM ATP, read-out: % Inhibition mean, EGFR (ErbB1); for inhibition at 0.001 µM: 1 nM compound; for inhibition at 0.01 µM: 10 nM compound; for inhibition at 0.1 µM: 100 nM compound; for inhibition at 1 µM: 1000 nM compound; for IC50: read-out: IC50 in enzyme assays EGFR
Chain of EGFR (P00533 25-1210): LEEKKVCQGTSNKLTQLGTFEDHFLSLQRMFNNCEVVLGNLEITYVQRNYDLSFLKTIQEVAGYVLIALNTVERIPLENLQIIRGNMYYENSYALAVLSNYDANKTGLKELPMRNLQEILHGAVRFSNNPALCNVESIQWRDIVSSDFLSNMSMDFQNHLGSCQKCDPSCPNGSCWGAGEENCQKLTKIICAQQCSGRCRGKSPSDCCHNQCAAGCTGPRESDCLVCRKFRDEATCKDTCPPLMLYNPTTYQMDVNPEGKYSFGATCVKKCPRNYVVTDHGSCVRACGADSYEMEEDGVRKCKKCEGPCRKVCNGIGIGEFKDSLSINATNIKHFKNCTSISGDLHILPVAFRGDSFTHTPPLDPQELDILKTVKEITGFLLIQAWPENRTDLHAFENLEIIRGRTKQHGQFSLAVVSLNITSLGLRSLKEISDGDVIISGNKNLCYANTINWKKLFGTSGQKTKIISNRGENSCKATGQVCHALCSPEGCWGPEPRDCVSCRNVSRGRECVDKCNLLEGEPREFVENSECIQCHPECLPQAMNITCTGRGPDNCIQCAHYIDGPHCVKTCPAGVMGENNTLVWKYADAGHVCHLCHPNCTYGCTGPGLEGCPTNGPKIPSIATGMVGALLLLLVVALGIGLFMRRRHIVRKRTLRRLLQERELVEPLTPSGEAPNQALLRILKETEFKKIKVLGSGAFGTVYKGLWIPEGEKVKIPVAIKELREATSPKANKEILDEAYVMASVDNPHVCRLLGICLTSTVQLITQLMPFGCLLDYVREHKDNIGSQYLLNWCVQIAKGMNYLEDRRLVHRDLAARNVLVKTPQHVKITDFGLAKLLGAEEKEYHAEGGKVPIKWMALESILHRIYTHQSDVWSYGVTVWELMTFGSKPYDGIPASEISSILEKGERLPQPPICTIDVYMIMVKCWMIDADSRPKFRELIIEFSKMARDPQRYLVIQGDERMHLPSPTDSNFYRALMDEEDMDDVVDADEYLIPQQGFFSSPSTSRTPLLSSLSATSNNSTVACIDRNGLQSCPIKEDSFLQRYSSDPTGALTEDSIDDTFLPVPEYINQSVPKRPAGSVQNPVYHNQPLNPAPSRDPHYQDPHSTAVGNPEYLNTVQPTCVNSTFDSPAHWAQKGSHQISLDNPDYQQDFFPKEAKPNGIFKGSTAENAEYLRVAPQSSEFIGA
Method: The target compounds were evaluated for their in vitro inhibitory activities against EGFR, VEGFR-2, and HDAC6. The EGFR and VEGFR-2 inhibitory assays were performed at Thermo Fischer Scientific, Madison, WI, USA (SelectScreenServices@thermofisher.com). The HDAC inhibitory assays were performed at BPS Bioscience, San Diego, CA, USA (www.bpsbioscience.com). Initially, all of the synthesised target compounds were evaluated for their percent inhibitory activity against EGFR, VEGFR-2, and HDACs at 10 µM single dose concentration, in which their mean percent inhibition is summarised in (Figure 5, Tables 1 and [2]). Representative compounds were evaluated for their percent inhibitory activity against EGFR and VEGFR-2 at 6 different concentrations (0.1 nM, 1 nM, 10 nM, 100 nM, 1 µM, 10 µM) to subsequently calculate their IC50 values (Table 3). Additionally, all of the synthesised target compounds were submitted to the National Cancer Institute “NCI” Bethesda, Maryland, USA (www.dtp.nci.nih.gov), to evaluate theirs in vitro antiproliferative activities against NCI 60- cancer cell line panel.
In vitro enzyme inhibition determination for the synthesised compounds was carried out in Thermo Fischer Scientific, Madison, WI, USA (SelectScreenServices@thermofisher.com). The EGFR and VEGFR-2 tyrosine kinase % inhibitory activity at a single-dose concentration of 10 µM was performed initially then representative compounds were evaluated at single-dose concentrations of (0.1 nM, 1 nM, 10 nM, 100 nM, 1 µM) using ZYLTE technology. A fluorescence-based, coupled-enzyme format is employed in the biochemical assay and depends on the sensitivity of proteolytic cleavage to non-phosphorylated and phosphorylated peptides. Then IC50 values for selected compounds were determined by GraphPad Prism at Misr international university.

[3] = tested on: MCF7; assay: NCI one-dose screen; format: cell-based, human; settings: Breast MCF7, 10 µM single dose
Method: (§1) All of the synthesised structures were selected and submitted to NCI based on computer modelling techniques and the degree of diversity of structures for the evaluation of their antiproliferative activity. The 20 synthesised compounds were selected with their respective NCI codes [NCS D-820157- NCS D-820176] for the inhibition percent assay at an initial single dose of 10 μM on the full NCI 60 cell panel, where the mean graph of the percent growth for all compounds on the full NCI cell panel is evaluated, compared to the untreated control cells (Supplementary Material). In vitro cell line inhibition % of all synthesised compounds is represented in (Table 1 of Supplementary Material).
(§2) All of the synthesised compounds (20) were submitted to NCI and selected for in vitro anticancer assay against a panel of 60 cancer cell lines. The methodology of assay and calculations is as reported.

[4] = tested on: ACHN; assay: NCI one-dose screen; format: cell-based, human; settings: Renal ACHN, 10 µM single dose
Method: as §1, §2

[5] = tested on: OVCAR-8; assay: NCI one-dose screen; format: cell-based, human; settings: Ovarian OVCAR-8, 10 µM single dose
Method: as §1, §2

[6] = tested on: MDA-MB-468; assay: NCI one-dose screen; format: cell-based, human; settings: Breast MDA-MB-468, 10 µM single dose
Method: as §1, §2

[7] = tested on: NCI/ADR-RES; assay: NCI one-dose screen; format: cell-based, human; settings: Ovarian NCI/ADR-RES, 10 µM single dose
Method: as §1, §2

[8] = tested on: UACC-257; assay: NCI one-dose screen; format: cell-based, human; settings: Melanoma UACC-257, 10 µM single dose
Method: as §1, §2

[9] = tested on: SF-295; assay: NCI one-dose screen; format: cell-based, human; settings: CNS SF-295, 10 µM single dose
Method: as §1, §2

[10] = tested on: NCI-H460; assay: NCI one-dose screen; format: cell-based, human; settings: NSCLC NCI-H460, 10 µM single dose
Method: as §1, §2

[11] = tested on: U251; assay: NCI one-dose screen; format: cell-based, human; settings: CNS U251, 10 µM single dose
Method: as §1, §2

[12] = tested on: MDA-MB-231/ATCC; assay: NCI one-dose screen; format: cell-based, human; settings: Breast MDA-MB-231/ATCC, 10 µM single dose
Method: as §1, §2

[13] = tested on: Hela nuclear extracts; assay: Hela nuclear extract HDAC inhibitor assay (BPS Bioscience); format: biochemical; settings: 10 µM
Summary of the method: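 HeLa nuclear extract (20-fold diluted) was incubated with […] HDAC Substrate 3, 5 µg BSA and compound (1% DMSO final) at 37 °C for 60 min, in duplicate. After 15 min with HDAC developer at room temperature, fluorescence was read at 360/460 nm and % activity normalized to no-compound and no-extract controls.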

Row | SMILES | melting point [°C] | inhibition at 10 µM ([1]; 10 µM single dose) [%] | inhibition at 10 µM ([2]; 10 µM single dose) [%] | Growth Percent [3] | Growth Percent [4] | Growth Percent [5] | Growth Percent [6] | Growth Percent [7] | Growth Percent [8] | Growth Percent [9] | Growth Percent [10] | Growth Percent [11] | Growth Percent [12] | % Inhibition Hela Nuclear Extracts [13] [%] | inhibition at 0.0001 µM [1] [%] | inhibition at 0.001 µM [1] [%] | inhibition at 0.01 µM [1] [%] | inhibition at 0.1 µM [1] [%] | inhibition at 1 µM [1] [%] | IC50 [1] [nM] | further results
1 | COc1cccc(NC(=O)Nc2ccc(Nc3ncnc4sc(C(=O)NCCCC(=O)NO)c(C)c34)cc2)c1 [Compound 12b, 1–(4-(6-((4-(hydroxyamino)-4-oxobutyl)carbamoyl)-5-methylthieno[2,3-d]pyrimidin-4-ylamino)phenyl)-3–(3-methoxyphenyl)urea] | 231 to 233 | 83 | 5 | 91.5% | 98.6% and 98.68% | 103.6% and 103.67% | 97.0% and 97.02% | 101.6% and 101.63% | 104.3% and 104.35% | 102.5% and 102.51% | 99.1% | 92.8% and 92.88% | 97.0% and 97.05% | 3 |  |  |  |  |  |  | 
2 | Cc1c(C(=O)NCCCC(=O)NO)sc2ncnc(Nc3ccc(NC(=O)Nc4cccc(C(F)(F)F)c4)cc3)c12 [Compound 12c, 1–(4-(6-((4-(hydroxyamino)-4-oxobutyl)carbamoyl)-5-methylthieno[2,3-d]pyrimidin-4-ylamino)phenyl)-3–(3-(trifluoromethyl)phenyl)urea] | 215 to 217 | 103 | 66 | 95.2% and 95.26% | 105.9% and 105.92% | 105.9% and 105.93% | 105.6% and 105.66% | 99.2% and 99.22% | 107.0% | 93.7% and 93.78% | 101.9% and 101.92% | 87.3% and 87.39% | 99.1% and 99.12% | 7 | 5 | 10 | 5 | 36 | 90 | 185 | Mean % inhibition VEGFR-2 ([1]; 10 µM single dose): 100%; inhibition at 0.0001 µM [2]: 6%; inhibition at 0.001 µM [2]: 4%; inhibition at 0.01 µM [2]: 4%; inhibition at 0.1 µM [2]: 7%; inhibition at 1 µM [2]: 34%; IC50 [2]: 1140 nM
3 | Cc1c(C(=O)NO)sc2ncnc(Nc3cccc4[nH]cnc34)c12 [Compound 15a, 4-(1H-benzo[d]imidazol-4-ylamino)-N-hydroxy-5-methylthieno[2,3-d]pyrimidine-6-carboxamide] | 280 | 36 | 45 | 95.2% and 95.25% | 99.1% and 99.11% | 103.6% and 103.64% | 101.3% and 101.31% | 102.6% and 102.67% | 112.4% and 112.47% | 103.7% | 102.7% and 102.72% | 96.7% and 96.72% | 102.4% and 102.49% | 3 |  |  |  |  |  |  | 
4 | Cc1c(C(=O)NO)sc2ncnc(Nc3ccccc3)c12 [Compound 15b, N-hydroxy-5-methyl-4-(phenylamino)thieno[2,3-d]pyrimidine-6-carboxamide] | 200 | 32 | 98 | 87.2% and 87.27% | 95.0% and 95.07% | 104.4% and 104.46% | 80.8% | 96.1% and 96.17% | 107.0% and 107.03% | 91.9% and 91.96% | 101.6% and 101.66% | 90.0% and 90.06% | 100.3% and 100.34% | 9 |  |  |  |  |  |  | 
5 | Cc1c(C(=O)NO)sc2ncnc(Nc3ccc(Cl)cc3)c12 [Compound 15c, 4–(4-chlorophenylamino)-N-hydroxy-5-methylthieno[2,3-d]pyrimidine-6-carboxamide] | 349 | 87 |  | 88.6% | 97.3% and 97.37% | 102.0% and 102.02% | 102.9% and 102.91% | 102.1% and 102.16% | 110.0% and 110.09% | 102.7% and 102.79% | 98.9% and 98.93% | 100.9% and 100.96% | 88.1% and 88.18% | 4 | 7 | 4 | 7 | 15 | 39 | 5580 | inhibition at 0.0001 µM [2]: 0%; inhibition at 0.001 µM [2]: 5%; inhibition at 0.01 µM [2]: 34%; inhibition at 0.1 µM [2]: 81%; inhibition at 1 µM [2]: 95%; Mean % inhibition EGFR ([2]; 10 µM single dose): 97%; IC50 [2]: 19 nM

From PMC8253220, “Molecular design, synthesis and in vitro biological evaluation of thienopyrimidine–hydroxamic acids as chimeric kinase HDAC inhibitors: a challenging approach to combat cancer” (Journal of Enzyme Inhibition and Medicinal Chemistry, 2021)
